In the supplement of paper PMC13380429:

Key:
Conditions in all cases: 72 h
Vero E6 [1] = assay: drug sensitivity score (DSS) for viability; higher = more toxic; extreme values may be limits of the assay
Caco-2 [2] = assay: as above
U2OS [3] = assay: as above
HepG2 [4] = assay: as above
Calu-3 [5] = assay: as above
Vero E6 [6] = assay: cell viability relative to DMSO; higher = less toxic
Caco-2 [7] = assay: as above
U2OS [8] = assay: as above
HepG2 [9] = assay: as above
Calu-3 [10] = assay: as above
Vero E6 [11] = assay: relative viability EC50 (midpoint between 100% and the lowest measured viability); higher = less toxic
U2OS [12] = assay: as above
HepG2 [13] = assay: as above
Calu-3 [14] = assay: as above

Compound | drug sensitivity score (Vero E6 [1]) | drug sensitivity score (Caco-2 [2]) | drug sensitivity score (U2OS [3]) | drug sensitivity score (HepG2 [4]) | drug sensitivity score (Calu-3 [5]) | cell viability (Vero E6 [6]; 1 nM) [%] | cell viability (Vero E6 [6]; 10 nM) [%] | cell viability (Vero E6 [6]; 100 nM) [%] | cell viability (Vero E6 [6]; 1000 nM) [%] | cell viability (Vero E6 [6]; 10000 nM) [%] | cell viability (Caco-2 [7]; 1 nM) [%] | cell viability (Caco-2 [7]; 10 nM) [%] | cell viability (Caco-2 [7]; 100 nM) [%] | cell viability (Caco-2 [7]; 1000 nM) [%] | cell viability (Caco-2 [7]; 10000 nM) [%] | cell viability (U2OS [8]; 1 nM) [%] | cell viability (U2OS [8]; 10 nM) [%] | cell viability (U2OS [8]; 100 nM) [%] | cell viability (U2OS [8]; 1000 nM) [%] | cell viability (U2OS [8]; 10000 nM) [%] | cell viability (HepG2 [9]; 1 nM) [%] | cell viability (HepG2 [9]; 10 nM) [%] | cell viability (HepG2 [9]; 100 nM) [%] | cell viability (HepG2 [9]; 1000 nM) [%] | cell viability (HepG2 [9]; 10000 nM) [%] | cell viability (Calu-3 [10]; 1 nM) [%] | cell viability (Calu-3 [10]; 10 nM) [%] | cell viability (Calu-3 [10]; 100 nM) [%] | cell viability (Calu-3 [10]; 1000 nM) [%] | cell viability (Calu-3 [10]; 10000 nM) [%] | relative viability EC50 (Vero E6 [11]) [µM] | relative viability EC50 (U2OS [12]) [µM] | relative viability EC50 (HepG2 [13]) [µM] | relative viability EC50 (Calu-3 [14]) [µM]
COc1cc2ncnc(Nc3ccc(Cl)cc3F)c2cc1OC | 7.4 | 4.7 | 0.7 | 0 | 9 | 100 | 99.2 | 87.7 | 66.8 | 48.6 | 91.1 | 91.6 | 88.6 | 81.5 | 62.4 | 97.3 | 98.5 | 99.4 | 96.3 | 84.1 | 99.1 | 107 | 89.4 | 109 | 87.1 | 96.2 | 103 | 90.2 | 61.1 | 22.6 | 0.434 | > 10 | > 10 | 0.903
Cc1c(C(=O)NCCCO)cnn1-c1nc(-c2cccc(C(F)(F)F)c2)cs1 | 0 | 1.4 | 0.5 | 2.1 | 0 | 98.1 | 95.9 | 102 | 97.7 | 90.3 | 93.5 | 91.4 | 96.1 | 102 | 67.1 | 101 | 103 | 93.3 | 98.1 | 83.9 | 99.3 | 91.1 | 96 | 106 | 52.9 | 107 | 102 | 112 | 104 | 94.3 | > 10 | > 10 | – | > 10
NC1(C(=O)N[C@@H](CCO)c2ccc(Cl)cc2)CCN(c2ncnc3[nH]ccc23)CC1 [AZD5363] | 0 | 5.3 | 3.6 | 3 | 2.5 | 98.7 | 99.9 | 96.4 | 94.8 | 90.8 | 100 | 102 | 93.3 | 74.8 | 54.6 | 97.4 | 94.7 | 92.5 | 90.9 | 57.5 | 99.3 | 101 | 93.8 | 84.8 | 66.6 | 113 | 101 | 102 | 85.6 | 75.6 | > 10 | – | – | > 10
CC1(C)CC(Oc2ccc(-c3ccc(-c4cn[nH]c4)cc3O)nn2)CC(C)(C)N1 [LMI070] | 11.5 | 2 | 6.2 | 10.7 | 2.9 | 101 | 102 | 104 | 48.5 | 5.1 | 95.1 | 108 | 106 | 94.6 | 72.5 | 96.4 | 102 | 103 | 93.5 | 6.6 | 107 | 104 | 110 | 51.8 | 12.4 | 96.7 | 97.1 | 92.7 | 74.5 | 85.4 | 0.935 | 2.6 | 0.926 | –
CC[N+](CC)(CC)CCOc1ccc(/C=C/c2ccccc2)cc1 [MG-624] | 0 | 2.3 | 0 | 0.7 | 0 | 97.9 | 91 | 88.6 | 97.8 | 97.4 | 101 | 100 | 93.6 | 89.3 | 68.7 | 101 | 103 | 100 | 104 | 93 | 106 | 102 | 102 | 99.3 | 78.9 | 101 | 103 | 94.3 | 95.4 | 93.3 | > 10 | > 10 | > 10 | > 10
CCOc1cc(C(C)(C)C)ccc1C1=N[C@@](C)(c2ccc(Cl)cc2)[C@@](C)(c2ccc(Cl)cc2)N1C(=O)N1CCN(CCCS(C)(=O)=O)CC1 [RG7112] | 7.1 | 3.1 | 5.5 | 13.7 | 2 | 106 | 107 | 99.3 | 78.1 | 28.8 | 101 | 95.9 | 104 | 94.5 | 56.6 | 97.6 | 98.1 | 96.9 | 80.5 | 44.7 | 95.1 | 102 | 86.3 | 35.2 | 20.6 | 98 | 94.6 | 101 | 89 | 77.5 | 1.38 | 1.34 | 0.327 | > 10
O=C1N=C(NCc2cccs2)S/C1=C\c1ccc2ncccc2c1 [Ro-3306] | 1.1 | 1 | 0.7 | 9.2 | 0 | 97 | 97.4 | 98.5 | 93.8 | 80.9 | 89.1 | 105 | 97.2 | 100 | 74.2 | 97.9 | 98.5 | 97.1 | 98.3 | 81.1 | 93.2 | 77.7 | 90.2 | 62.2 | 51 | 101 | 113 | 94 | 103 | 104 | > 10 | > 10 | – | > 10
CCOc1cc(C(=O)Nc2ccc(Cl)c(-c3nc4ccccc4[nH]3)c2)cc(OCC)c1OCC [SANT-2] | 0 | 3.4 | 0 | 2.5 | 1.7 | 97.4 | 93.7 | 99.4 | 95.2 | 92.6 | 94.6 | 102 | 89.4 | 91.6 | 57.8 | 94.2 | 98.8 | 98.3 | 103 | 90 | 102 | 94.4 | 99.6 | 90.9 | 71.5 | 103 | 111 | 97.5 | 94 | 75.7 | > 10 | > 10 | – | > 10
COc1cc2c(cc1OC)CN(C(=O)/C=C/c1c(-c3ccccc3)n(C)c3ncccc13)CC2 [SIS3] | 0 | 1.8 | 0 | 0 | – | 100 | 93.3 | 98.8 | 98.2 | 100 | 93.9 | 94.5 | 88.8 | 96.5 | 71.1 | 99 | 101 | 94.9 | 99.9 | 96.2 | 98.9 | 106 | 106 | 106 | 106 | – | – | – | – | – | > 10 | > 10 | > 10 | –
C[C@]12CC[C@H]3[C@@H](CCC4=CC(=O)CC[C@@]43C)[C@@H]1CC[C@@H]2O [TESTOSTERONE] | 0 | 8.9 | 0 | 0 | 0 | 97.6 | 103 | 98.7 | 108 | 87.9 | 104 | 97.6 | 70.8 | 72.6 | 79.9 | 102 | 92.4 | 98.7 | 100 | 94.6 | 81 | 91.7 | 104 | 104 | 95.1 | 95.2 | 99.1 | 102 | 95.3 | 92.3 | > 10 | > 10 | > 10 | > 10
Cc1c2oc3c(C)ccc(C(=O)N[C@@H]4C(=O)N[C@@H](C(C)C)C(=O)N5CCC[C@H]5C(=O)N(C)CC(=O)N(C)[C@@H](C(C)C)C(=O)O[C@@H]4C)c3nc-2c(C(=O)N[C@@H]2C(=O)N[C@@H](C(C)C)C(=O)N3CCC[C@H]3C(=O)N(C)CC(=O)N(C)[C@@H](C(C)C)C(=O)O[C@@H]2C)c(N)c1=O [actinomycin-d] | 20.1 | 15.2 | 29.2 | 36.5 | 25.9 | 101 | 102 | 79.5 | 6.9 | 7.9 | 95.6 | 77.5 | 58.6 | 61 | 65.9 | 105 | 65.9 | 31.5 | 0.7 | 1 | 113 | 41.4 | 15.9 | 3.1 | 5.1 | 102 | 71.4 | 31.7 | 24.5 | 36.7 | 0.166 | 0.0296 | 0.0085 | 0.0152
Cc1nc(NC(=O)N2CCC[C@H]2C(N)=O)sc1-c1ccnc(C(C)(C)C(F)(F)F)c1 [alpelisib] | 1.2 | 3.9 | 1.8 | 6.1 | 9.2 | 104 | 104 | 98.4 | 94.7 | 80.3 | 107 | 102 | 89.8 | 91.5 | 52.3 | 102 | 93.3 | 96.8 | 89.9 | 73.7 | 102 | 99.7 | 89.6 | 71 | 60.1 | 87.4 | 93.8 | 88.4 | 60.8 | 25.7 | > 10 | – | – | 0.743
COc1ccccc1OCCNCC(O)COc1cccc2[nH]c3ccccc3c12 (stereo not drawn) [carvedilol] | 0 | – | 0 | 0.1 | 0 | 100 | 102 | 94.2 | 107 | 94.7 | – | – | – | – | – | 96.4 | 100 | 103 | 93.1 | 92.3 | 99.3 | 108 | 88.7 | 100 | 86.6 | 97 | 92.2 | 102 | 89.2 | 97.4 | > 10 | > 10 | > 10 | > 10
Clc1ccccc1C(c1ccccc1)(c1ccccc1)n1ccnc1 [clotrimazole] | 0 | 2.2 | 1.2 | 2.2 | 0 | 93.8 | 95.3 | 100 | 99.2 | 89.9 | 96 | 97.1 | 96.2 | 91.9 | 71 | 104 | 104 | 95.9 | 99.5 | 72 | 96.9 | 98 | 114 | 99.8 | 56.9 | 94.7 | 102 | 92.9 | 96.4 | 94 | > 10 | – | – | > 10
